{"source": "BindingDB's records for doi:10.1021/jm00150a013", "about": "(1986)", "target": "Chymotrypsinogen A (Bos taurus) (UniProt P00766)", "assay": "Inhibitory activity against bovine Chymotrypsinogen expressed as inhibitory constant", "data": [{"smiles": "CCCCc1c(C)oc(=O)c(CCCC)c1O", "values": [{"measurement": "Ki", "value": 1350, "unit": "µM"}]}]}
